Source: US8802704B2, “Oxadiazole derivatives” (Merck Serono SA, priority 2009, dated 2014)
Read-outs that look alike come from different tables or passages of the source.

Legend:
[1] = target: T1, S1P1 (Homo sapiens, UniProt P21453); test: Receptor binding assay, [33P]sphingosine 1-phosphate competition (SPA), S1P1
Description: Cells were suspended in 50 mM TRIS, pH 7.4, 2 mM EDTA, 250 mM Sucrose (buffer A) and 1× Complete protease inhibitor cocktail (Roche), and disrupted at 4° C. by N2 decompression using a cell disruption bomb (Parr Instrument). […] The pellet was then suspended in 10 mM HEPES, pH 7.4, 1 mM EDTA, 250 mM Sucrose (Buffer B), and 1× Complete EDTA-free protease inhibitor cocktail and homogenized using a potter. Membranes were flash frozen in liquid N2 and stored at −80° C.
[33P]sphingosine 1-phosphate (3000 Ci/mmol; American Radiolabeled Chemicals, Inc.) was added to test compounds in 20% DMSO by competition. […] Triplicate samples were averaged and normalized as percentage of inhibition relative to total binding (only DMSO in well) and non-specific binding (1000-fold excess of unlabeled S1P). Binding data were analyzed using the GraphPad Prism program or Genedata software.
Target sequence in this assay (P21453 whole entry, species assumed): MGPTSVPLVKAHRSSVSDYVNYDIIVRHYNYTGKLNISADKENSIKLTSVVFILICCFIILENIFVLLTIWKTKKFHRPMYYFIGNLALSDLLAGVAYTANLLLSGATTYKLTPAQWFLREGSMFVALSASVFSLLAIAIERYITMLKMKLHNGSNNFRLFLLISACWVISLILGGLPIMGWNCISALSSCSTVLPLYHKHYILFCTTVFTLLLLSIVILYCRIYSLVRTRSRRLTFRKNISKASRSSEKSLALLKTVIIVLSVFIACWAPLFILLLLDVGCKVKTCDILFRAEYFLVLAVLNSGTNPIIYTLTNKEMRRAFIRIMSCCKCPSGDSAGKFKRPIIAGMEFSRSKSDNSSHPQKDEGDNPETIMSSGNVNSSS

[2] = target: S1P3 (Homo sapiens, UniProt Q99500); test: Receptor binding assay, [33P]sphingosine 1-phosphate competition (SPA), S1P3
Sequence of S1P3 (Q99500 whole entry, species assumed): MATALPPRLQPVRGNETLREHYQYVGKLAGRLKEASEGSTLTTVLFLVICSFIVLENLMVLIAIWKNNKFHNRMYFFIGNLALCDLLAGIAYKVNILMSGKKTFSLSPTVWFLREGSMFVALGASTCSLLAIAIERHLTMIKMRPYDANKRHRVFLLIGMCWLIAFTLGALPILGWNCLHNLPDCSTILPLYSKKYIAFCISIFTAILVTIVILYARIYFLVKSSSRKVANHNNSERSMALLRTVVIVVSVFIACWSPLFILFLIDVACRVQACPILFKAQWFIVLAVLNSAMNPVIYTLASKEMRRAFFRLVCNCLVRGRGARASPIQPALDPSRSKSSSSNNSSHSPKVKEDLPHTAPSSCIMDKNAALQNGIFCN
Description: Membranes were prepared from CHO cells expressing S1P1 or S1P3 for use in ligand and […] binding studies. Cells were suspended in 50 mM TRIS, pH 7.4, 2 mM EDTA, 250 mM Sucrose (buffer A) and 1× Complete protease inhibitor cocktail (Roche), and disrupted at 4° C. by N2 decompression using a cell disruption bomb (Parr Instrument). Following centrifugation at 1000 RPM for 10 min at 4° C., the supernatant was diluted (2×) in buffer A and centrifuged again at 19000 RPM for 75 min at 4° C. The pellet was then suspended in 10 mM HEPES, pH 7.4, 1 mM EDTA, 250 mM Sucrose (Buffer B), and 1× Complete EDTA-free protease inhibitor cocktail and homogenized using a potter. Membranes were flash frozen in liquid N2 and stored at −80° C.
[33P]sphingosine 1-phosphate (3000 Ci/mmol; American Radiolabeled Chemicals, Inc.) was added to test compounds in 20% DMSO by competition. Membranes and WGA SPA beads (GE Healthcare) were added to give a final volume of 100 μl in 96-well plates or 50 μl in 384-well plates with assay concentrations of 30 pM or 15 pM [33P]sphingosine 1-phosphate (respectively for S1P1 or S1P3), 50 mM HEPES, pH 7.5, 5 mM MgCl2, 100 mM NaCl, 0.4% fatty acid-free BSA, 1-5 μg/well of proteins in 96-well plates vs 0.6-1 μg/well of proteins in 384-well plates and 100 μg/well of WGA SPA beads in 96-well plates vs 75 μg/well of WGA SPA beads in 384-well plates. Binding was performed for 60 min at RT on a shaker and bound radioactivity was measured on a PerkinElmer 1450 MicroBeta counter. Triplicate samples were averaged and normalized as percentage of inhibition relative to total binding (only DMSO in well) and non-specific binding (1000-fold excess of unlabeled S1P). Binding data were analyzed using the GraphPad Prism program or Genedata software.

[3] = target: T1, S1P1; test: S1P1 internalization assay in S1P1-U2OS cells (cell imaging); assay type: cell-based; conditions: U2OS cells expressing S1P1-EGFP, 1 hour
Description: Cellular functional assays: Internalization of Sphingosine-1-phosphate receptor 1 (S1P1) in a human Cell line (U2OS) in a 384-well format using a Cell Imaging analysis.
The S1P1 internalization assay was performed in 384 well plates (Corning® 384 black with clear bottom 3712) using S1P1-U2OS cells from Biolmage (C039A), a human epithelial cell line (Human Bone Osteosarcoma Epithelial Cells). These cells expressed the human S1P1 Receptor fused to the green fluorescent protein (EGFP). A standard CMV promoter (cytomegalovirus promoter) controls the expression of S1P1-EGFP and continuous expression was maintained by addition of geneticin to the culture medium.
S1P1Receptor desensitization induced the internalization of the membrane-localized S1P1-EGFP fusion protein to endosomes, which can be monitored by cell imaging analysis. The cells are plated in low serum medium (Dulbecco's Modified Eagle Medium (DMEM) with Glutamax-1 and high glucose, 1% Penicillin/Streptomycin, 1% Fetal Calf Serum (FCS), 0.5 mg/ml Geneticin) overnight.
The next day, S1P1-U2OS cells are incubated in 20 μl serum free medium (DMEM with Glutamax-1 and high glucose, 0.1% of fatty-acid free Bovin Serum Albumin (BSA), 10 mM, N′-2-Hydroxyethylpiperazine-N′-2 ethanesulphonic acid (HEPES) 1M) for 2 hours at 37° C./5% CO2. The cells are then treated with 4 μl compounds/agonists (6×/3% DMSO) for a total volume of 24 μl, and plates are incubated for 1 hour at 37° C./5% CO2.
S1P1-U2OS cells are fixed with 25 μl Paraformaldehyde 8% and stained with Hoechst 33345 dye (1:1000) for 20 minutes.
They were then washed 3 times with Phosphate Buffered Saline (PBS) and plates are sealed. The internalization of the receptor S1P1-EGFP is measured on Cellomics by calculating the “spot count per object” (“object” corresponds to nuclear and “spot” corresponds to S1P1-EGFP receptor). Internalization data were observed thanks to vHCS View and analyzed using Genedata® software.
Target sequence in this assay (P21453 whole entry): as the sequence (P21453 whole entry, species assumed) above

[4] = 384 well-plate, read-out: S1P1 binding Ki (M) (384 well-plate)
[5] = 96 well-plate, read-out: S1P3 binding Ki (M) (96 well-plate)
[6] = 384 well-plate, read-out: S1P3 binding Ki (M) (384 well-plate)
[7] = 96 well-plate, read-out: S1P1 binding Ki (M) (96 well-plate)

| SMILES | Ki [1, 4] | Ki [2, 5] | Ki [2, 6] | EC50 [3] | Ki [1, 7] |
| --- | --- | --- | --- | --- | --- |
| CN(CC(=O)O)Cc1cc(F)cc(-c2noc(-c3ccc(-c4ccccc4C(F)(F)F)c(Cl)c3)n2)c1 [Example 136, N-(3-{5-[2-chloro-2′-(trifluoromethyl)biphenyl-4-yl]-1,2,4-oxadiazol-3-yl}-5-fluorobenzyl)-N-methylglycine] | 4.27e-09 M |  | 2.32e-06 M | 40.9 nM |  |
| Cc1cc(-c2nc(-c3cccc(CN(C)CC(=O)O)c3)no2)ccc1-c1ccccc1C(F)(F)F [Example 101, N-methyl-N-(3-{5-[2-methyl-2′-(trifluoromethyl)biphenyl-4-yl]-1,2,4-oxadiazol-3-yl}benzyl)glycine] | 5.63e-09 M | 9.43e-06 M | 6.59e-06 M | 69.3 nM |  |
| CCc1ccccc1-c1ccc(-c2nc(-c3ccc(CN(C)CC(=O)O)c(F)c3)no2)cc1C(F)(F)F [Example 110, N-(4-{5-[2′-ethyl-2-(trifluoromethyl)biphenyl-4-yl]-1,2,4-oxadiazol-3-yl}-2-fluorobenzyl)-N-methylglycine] | 6.22e-09 M |  |  | 56.7 nM |  |
| Cc1ccccc1-c1ccc(-c2nc(-c3ccc(Cl)c(CN(C)CC(=O)O)c3)no2)cc1C(F)(F)F [Example 111, N-(2-chloro-5-{5-[2′-methyl-2-(trifluoromethyl)biphenyl-4-yl]-1,2,4-oxadiazol-3-yl}benzyl)-N-methylglycine] | 3.68e-09 M |  |  | 45.9 nM |  |
| Cc1ccccc1-c1ccc(-c2nc(-c3ccc(CN(CC(=O)O)C(C)C)cc3)no2)cc1C(F)(F)F [Example 113, (Isopropyl-{4-[5-(2′-methyl-2-trifluoromethyl-biphenyl-4-yl)-[1,2,4]oxadiazol-3-yl]-benzyl}-amino)-acetic acid] | 2.9e-09 M | 2.17e-06 M | 2.7e-06 M | 24.8 nM |  |
| Cc1cc(-c2nc(-c3ccc(CN(C)CC(=O)O)cc3)no2)ccc1-c1ccccc1C(F)(F)F [Example 100, N-methyl-N-(4-{5-[2-methyl-2′-(trifluoromethyl)biphenyl-4-yl]-1,2,4-oxadiazol-3-yl}benzyl)glycine] | 3.49e-09 M | 9.43e-06 M | 9.67e-06 M | 56.1 nM | 1.04e-09 M |
| CN(CC(=O)O)Cc1ccc(-c2noc(-c3ccc(-c4ccccc4C(F)(F)F)c(Cl)c3)n2)cc1 [Example 135] | 2.63e-09 M |  |  | 26.1 nM |  |
| Cc1ccccc1-c1ccc(-c2nc(-c3ccc(CN(C)CCC(=O)O)c(F)c3)no2)cc1C(F)(F)F [Example 71, N-(2-fluoro-4-{5-[2′-methyl-2-(trifluoromethyl)biphenyl-4-yl]-1,2,4-oxadiazol-3-yl}benzyl)-N-methyl-beta-alanine] |  | 1.31e-07 M |  |  |  |
| Cc1ccccc1-c1ccc(-c2nc(-c3cccc(CN(CC(=O)O)C(C)C)c3)no2)cc1C(F)(F)F [Example 117, (Isopropyl-{3-[5-(2′-methyl-2-trifluoromethyl-biphenyl-4-yl)-[1,2,4]oxadiazol-3-yl]-benzyl}-amino)-acetic acid] | 3.24e-09 M |  |  | 50.4 nM |  |

Second part, the molecule after the results:

| Ki [1, 4] | Ki [2, 5] | Ki [2, 6] | EC50 [3] | Ki [1, 7] | SMILES |
| --- | --- | --- | --- | --- | --- |
| 4.95e-10 M | 1.49e-07 M | 1.92e-07 M | 6.26 nM |  | Cc1ccccc1-c1ccc(-c2nc(-c3cccc(CN(C)CC(=O)O)c3F)no2)cc1C(F)(F)F [Example 112, N-(2-fluoro-3-{5-[2′-methyl-2-(trifluoromethyl)biphenyl-4-yl]-1,2,4-oxadiazol-3-yl}benzyl)-N-methylglycine] |
| 2.07e-09 M |  | 2.97e-07 M | 18 nM |  | Cc1ccccc1-c1ccc(-c2nc(-c3ccc(CN(C)CC(=O)O)c(F)c3F)no2)cc1C(F)(F)F [Example 150, 2-((2,3-difluoro-4-(5-(2-(trifluoromethyl)-2′-methylbiphenyl-4-yl)-1,2,4-oxadiazol-3-yl)benzyl)(methyl)amino)acetic acid] |
| 3.67e-09 M | 6.5e-07 M | 1.03e-06 M | 13.9 nM | 4.26e-10 M | COCc1cc(-c2nc(-c3ccc(CN(C)CC(=O)O)c(F)c3)no2)ccc1-c1ccccc1C(F)(F)F [Example 95, N-(2-fluoro-4-{5-[2-(methoxymethyl)-2′-(trifluoromethyl)biphenyl-4-yl]-1,2,4-oxadiazol-3-yl}benzyl)-N-methylglycine] |
| 1.91e-09 M | 1.09e-06 M | 9.14e-07 M | 15.6 nM |  | COCc1cc(-c2nc(-c3cccc(CN(C)CC(=O)O)c3F)no2)ccc1-c1ccccc1C(F)(F)F [Example 114, N-(2-fluoro-3-{5-[2-(methoxymethyl)-2′-(trifluoromethyl)biphenyl-4-yl]-1,2,4-oxadiazol-3-yl}benzyl)-N-methylglycine] |
| 8.98e-09 M |  | 2.14e-06 M | 15 nM |  | Cc1cc(-c2nc(-c3cc(F)cc(CN(C)CC(=O)O)c3)no2)ccc1-c1ccccc1C(F)(F)F [Example 104, N-(3-fluoro-5-{5-[2-methyl-2′-(trifluoromethyl)biphenyl-4-yl]-1,2,4-oxadiazol-3-yl}benzyl)-N-methylglycine] |
|  | 1.88e-07 M |  | 2.05 nM | 2.7e-10 M | Cc1ccccc1-c1ccc(-c2nc(-c3ccc(CN(C)CCC(=O)O)cc3)no2)cc1C(F)(F)F [Example 72] |
| 2.74e-09 M | 8.31e-07 M | 8.55e-07 M | 11.4 nM | 4.12e-10 M | Cc1ccccc1-c1ccc(-c2nc(-c3ccc(CN(C)CC(=O)O)cc3)no2)cc1C(F)(F)F [Example 81, N-methyl-N-(4-{5-[2′-methyl-2-(trifluoromethyl)biphenyl-4-yl]-1,2,4-oxadiazol-3-yl}benzyl)glycine] |
| 3.72e-09 M |  | 8.1e-06 M | 17.3 nM |  | CCc1cc(-c2noc(-c3ccc(-c4ccccc4C)c(C(F)(F)F)c3)n2)ccc1CN(C)CC(=O)O [Example 155, 2-((2-ethyl-4-(5-(2′-methyl-2-(trifluoromethyl)biphenyl-4-yl)-1,2,4-oxadiazol-3-yl)benzyl)(methy)amino)acetic acid] |
| 1.33e-09 M | 3.33e-07 M | 1.31e-06 M | 3.65 nM |  | Cc1ccccc1-c1ccc(-c2nc(-c3ccc(CN(C)CCCC(=O)O)cc3)no2)cc1C(F)(F)F [Example 116, 4-[methyl(4-{5-[2′-methyl-2-(trifluoromethyl)biphenyl-4-yl]-1,2,4-oxadiazol-3-yl}benzyl)amino]butanoic acid] |
| 5.33e-09 M |  | 9.76e-07 M | 23.3 nM |  | Cc1ccccc1-c1ccc(-c2nc(-c3ccc(CN(C)CC(=O)O)c(Cl)c3)no2)cc1C(F)(F)F [Example 129, 2-((4-(5-(2-(trifluoromethyl)-2′-methylbiphenyl-4-yl)-1,2,4-oxadiazol-3-yl)-2-chlorobenzyl)(methyl)amino)acetic acid] |
